{"source": "patent US11529359B2", "about": "“Use of GABAA receptor modulators for treatment of itch” (UNIVERSITÄT ZÜRICH, priority 2016, dated 2022)", "key": {"[1]": {"system": "histamine-induced itch", "test": "histamine-induced itch (cheek injection) in wild-type mice", "assay_type": "in vivo, wild-type C57BL6/J mice", "settings": "per oral 0.01, 0.03, 0.1, 1 and 3 mg/kg 90 min before 100 μg histamine; 30 min", "experimental": "(§1) Acute itch was assessed in mice that received intradermal microinjections of pruritogens or 0.9% saline into the right cheek, which had been shaved at least one day before the experiment. In two sets of experiments that addressed the contribution of GABAARs in primary and secondary pruritoceptors, pruritogens were injected in the right thigh (FIG. 17). Before injection, mice were acclimatized to a 15 cm diameter cylindrical enclosure for more than 30 min with cage bedding on the ground. Background white noise generated by a radio in the room at ambient volume was applied to prevent auditory distraction. A 30 gauge needle was inserted bevel-up and pushed 5 mm horizontally into the skin beyond the point of insertion, before injection of the pruritogen (in a total volume of 10 μl). No anesthesia was used. Correct injection was confirmed by the appearance of a slightly domed bulla upon injection. […] Videos were analyzed off-line. Scratching of the hind paw directed to the ipsilateral cheek was counted in bouts, with one scratching bout defined as an instance when the mouse lifted its paw to scratch until it returned the paw to the cage floor. In case of experiments in which the pruritogen was injected in the skin of the thigh, the time spent biting the injected skin area was counted in s/min as a measure of itch."}, "[2]": {"system": "chloroquine-induced itch", "test": "chloroquine-induced itch (cheek injection) in wild-type mice", "assay_type": "in vivo, wild-type C57BL6/J mice", "settings": "p.o.; wild-type mice; 100 μg chloroquine", "experimental": "as §1"}, "[3]": {"system": "benzodiazepine binding site of GABAARs", "test": "α-methyl 5-HT-induced itch in HRRR mice (α2, α3, α5 GABAARs benzodiazepine-insensitive)", "assay_type": "in vivo", "settings": "1 mg/kg p.o.; 20 μg α-methyl 5-HT", "experimental": "as §1"}, "[4]": {"biological_target": "T1, α3 GABAARs (Homo sapiens, UniProt P18507+P34903)", "T1 construct": "expressed in transfected cells; host or cells: HEK293 cells (ATCC), transient transfection", "T1 sequence (P34903 29-492)": "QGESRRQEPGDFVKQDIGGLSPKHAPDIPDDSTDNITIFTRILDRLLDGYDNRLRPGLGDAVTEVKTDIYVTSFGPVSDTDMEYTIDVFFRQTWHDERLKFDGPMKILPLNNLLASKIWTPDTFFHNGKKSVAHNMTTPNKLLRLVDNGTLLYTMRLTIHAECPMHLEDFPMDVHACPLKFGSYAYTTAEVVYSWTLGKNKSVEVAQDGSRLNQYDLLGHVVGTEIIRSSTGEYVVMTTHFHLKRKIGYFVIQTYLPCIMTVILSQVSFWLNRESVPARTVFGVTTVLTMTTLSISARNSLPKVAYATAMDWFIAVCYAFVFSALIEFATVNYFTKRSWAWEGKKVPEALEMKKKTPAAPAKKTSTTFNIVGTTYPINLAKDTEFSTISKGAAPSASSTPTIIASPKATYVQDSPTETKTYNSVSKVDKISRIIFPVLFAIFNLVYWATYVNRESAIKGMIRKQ", "T1 sequence (P28472 26-473 partner)": "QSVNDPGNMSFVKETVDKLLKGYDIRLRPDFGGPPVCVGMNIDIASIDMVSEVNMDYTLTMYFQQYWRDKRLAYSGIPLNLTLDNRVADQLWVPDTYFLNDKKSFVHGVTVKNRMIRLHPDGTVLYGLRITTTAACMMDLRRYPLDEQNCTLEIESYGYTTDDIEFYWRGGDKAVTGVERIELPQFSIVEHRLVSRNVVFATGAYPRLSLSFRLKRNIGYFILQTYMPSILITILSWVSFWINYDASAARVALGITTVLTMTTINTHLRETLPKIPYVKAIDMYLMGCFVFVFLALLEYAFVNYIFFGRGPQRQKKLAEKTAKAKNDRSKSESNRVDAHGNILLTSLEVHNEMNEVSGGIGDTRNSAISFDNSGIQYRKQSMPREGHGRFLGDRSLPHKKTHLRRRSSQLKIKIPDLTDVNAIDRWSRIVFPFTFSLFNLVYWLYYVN", "T1 sequence (P18507 40-467 limits assumed)": "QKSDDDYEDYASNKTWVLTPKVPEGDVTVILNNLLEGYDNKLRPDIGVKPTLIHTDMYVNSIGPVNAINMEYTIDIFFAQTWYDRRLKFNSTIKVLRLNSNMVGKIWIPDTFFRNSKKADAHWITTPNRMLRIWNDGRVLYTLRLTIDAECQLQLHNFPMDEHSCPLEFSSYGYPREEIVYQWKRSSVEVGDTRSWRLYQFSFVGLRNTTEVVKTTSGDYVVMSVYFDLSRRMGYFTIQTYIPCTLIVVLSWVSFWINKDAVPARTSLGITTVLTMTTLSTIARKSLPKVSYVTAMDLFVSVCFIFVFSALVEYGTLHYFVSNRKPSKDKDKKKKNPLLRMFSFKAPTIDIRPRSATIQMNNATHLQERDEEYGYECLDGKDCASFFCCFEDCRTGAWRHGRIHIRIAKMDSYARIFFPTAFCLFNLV", "test": "GABA-evoked currents, recombinant GABAARs in HEK293 cells (α3)", "assay_type": "cell-based", "settings": "HEK293 cells transiently transfected", "text": "(§2) HEK293 cells were transfected using lipofectamine LTX (Dugue, G. P., et al. Neuron, 2009, 61, 126-139). To ensure expression of the γ2 subunit (required for modulation of GABAARs by BDZs) in all recorded cells, the inventors transfected cells with a plasmid expressing the γ2 subunit plus eGFP from an IRES, and only selected eGFP-positive cells for recordings. The transfection mixture contained (in μg): 1 α1, 1 β2, 3 γ2/eGFP (used as a marker of successful transfection) or 1 αx, 1 β3, 3 γ2/eGFP in case of α2, α3, or α5GABAARs. Recordings were made 18-36 hrs after transfection. Whole-cell patch-clamp recordings of GABA-evoked currents were made at room temperature (20-24° C.) and at a holding potential of −60 mV. Recording electrodes were filled with solution containing (in mM): 120 CsCl, 10 EGTA, 10 HEPES (pH 7.40), 4 MgCl2, 0.5 GTP and 2 ATP. The external solution contained (in mM): 150 NaCl, 10 KCl, 2.0 CaCl2, 1.0 MgCl2, 10 HEPES (pH 7.4), and 10 glucose. GABA was applied to the recorded cell using a manually controlled pulse (4-6 s) of a low sub-saturating GABA concentration (ECS). ECs values of GABA were determined for all subunit combinations analyzed. […] Imax was determined as the average maximal current elicited by a concentration of 1 mM GABA. […]"}, "[5]": {"biological_target": "T2, α1 GABAARs (Homo sapiens, UniProt P14867+P18507)", "T2 construct": "expressed in transfected cells; host or cells: HEK293 cells (ATCC), transient transfection", "T2 sequence (P14867 28-456)": "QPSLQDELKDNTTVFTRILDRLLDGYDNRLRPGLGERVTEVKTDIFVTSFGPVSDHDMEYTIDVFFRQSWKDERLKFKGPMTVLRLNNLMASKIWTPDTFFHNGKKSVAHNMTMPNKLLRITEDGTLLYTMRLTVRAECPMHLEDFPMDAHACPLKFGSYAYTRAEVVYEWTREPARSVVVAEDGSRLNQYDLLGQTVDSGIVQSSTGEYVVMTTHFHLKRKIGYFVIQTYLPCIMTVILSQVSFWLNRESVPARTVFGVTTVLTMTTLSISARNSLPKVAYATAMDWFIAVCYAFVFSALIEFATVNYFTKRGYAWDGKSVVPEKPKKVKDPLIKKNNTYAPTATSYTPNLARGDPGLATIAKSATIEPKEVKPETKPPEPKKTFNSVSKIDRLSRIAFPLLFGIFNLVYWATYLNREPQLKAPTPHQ", "T2 sequence (P47870 25-512 partner limits assumed)": "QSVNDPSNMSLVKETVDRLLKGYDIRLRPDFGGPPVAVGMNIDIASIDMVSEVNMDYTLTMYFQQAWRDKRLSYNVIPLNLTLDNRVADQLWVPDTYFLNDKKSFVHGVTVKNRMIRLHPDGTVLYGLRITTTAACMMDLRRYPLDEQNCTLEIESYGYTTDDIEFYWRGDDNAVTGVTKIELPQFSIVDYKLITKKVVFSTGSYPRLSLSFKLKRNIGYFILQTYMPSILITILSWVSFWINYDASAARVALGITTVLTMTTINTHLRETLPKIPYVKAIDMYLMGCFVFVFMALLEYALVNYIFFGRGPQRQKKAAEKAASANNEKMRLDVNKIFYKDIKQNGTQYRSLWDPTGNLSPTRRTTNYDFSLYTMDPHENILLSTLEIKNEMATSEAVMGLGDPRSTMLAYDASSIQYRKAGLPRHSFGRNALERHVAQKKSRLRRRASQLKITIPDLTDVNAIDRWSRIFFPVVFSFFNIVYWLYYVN", "T2 sequence (P18507 40-467 limits assumed)": "as the sequence (P18507 40-467 limits assumed) above", "test": "GABA-evoked currents, recombinant GABAARs in HEK293 cells (α1)", "assay_type": "cell-based", "settings": "HEK293 cells transiently transfected", "text": "as §2"}, "[6]": {"system": "α5GABAARs", "test": "GABA-evoked currents, recombinant GABAARs in HEK293 cells (α5)", "assay_type": "cell-based", "settings": "HEK293 cells transiently transfected", "text": "as §2"}, "[7]": {"system": "GABAARs", "test": "recombinant GABAARs in HEK293 cells, direct activation in the absence of GABA", "assay_type": "cell-based", "text": "as §2"}, "[8]": {"system": "GABA-IPSCs in GRP neurons", "test": "GABAergic IPSCs in GRP neurons, whole-cell recordings in spinal cord slices", "assay_type": "cell-based, GRP::eGFP mice", "settings": "1 μM; n=7", "experimental": "Transverse spinal cord slices ([…]) were prepared from 20 to 29-day old GRP::eGFP mice of either sex as described previously (Dugue, G. P., et al. Neuron, 2009, 61, 126-139). Whole-cell patch clamp recordings were made at room temperature targeting eGFP positive neurons. During recordings, slices were continuously superfused at the rate of 1-2 ml/min with aSCF containing (in mM): 120 NaCl, 2.5 KCl, 1.25 NaH2PO4, 26 […], 5 HEPES, 1 MgCl2, 2 CaCl2) and 14.6 glucose (pH 7.4), equilibrated with 95% O2, 5% CO2. Recorded neurons were voltage clamped at −70 mV using an EPC 9 amplifier (HEKA Elektronic, Lambrecht, Germany) controlled with Patchmaster acquisition software. […] IPSCs were evoked by electrical stimulation (300 μs, 0.2-50 V) at 0.05 Hz using glass electrode filled with aCSF and placed 50-100 μm from the soma of the recorded cell. […] At the end of the recordings bicuculline (10 μM) was added to confirm the GABAergic nature of the recorded IPCSs. The weighted decay time constant (τw) was calculated from dual-exponential fits using the following equation: Tw=(τ1A1+τ2A2)/(A1+A2) where τ1 and τ2 are the fast and the slow decay time constants and A1 and A2 are the equivalent amplitude weighting factors (Labrakakis, C., Lorenzo, L. E., Bories, C., Ribeiro-da-Silva, A. & De Koninck, Y Mol Pain, 2009, 5, 24). […]"}, "[9]": {"system": "chloroquine-induced itch", "test": "chloroquine-induced itch (thigh injection), intrathecal drug, wild-type mice", "assay_type": "in vivo", "settings": "0.3 mg/kg intrathecal; 100 μg chloroquine into right thigh", "experimental": "as §1"}, "[10]": {"system": "α2GABAARs", "test": "chloroquine-induced biting (thigh injection) in hoxB8-α2−/−, α2fl/fl and α2 (H→R) mice", "assay_type": "in vivo", "settings": "1 mg/kg p.o., 100 μg chloroquine thigh", "experimental": "as §1"}}}
{"smiles": "CC(C)(O)c1cnn2c(-c3ccc(F)c(-c4c(F)cccc4C#N)c3)cnc2n1", "note": "[TPA023B, 6,2′-difluoro-5′-[3-(1-hydroxy-1-methylethyl)imidazo[1,2-b][1,2,4]triazin-7-yl]biphenyl-2-carbonitrile]", "values": [{"measurement": "scratching bouts, histamine-induced itch", "setting": "[1]", "result": "dose-dependent reduction of scratching bouts"}, {"measurement": "doses at which chloroquine-induced scratching behavior was reduced", "setting": "[2]", "result": 0.03, "unit": "mg/kg"}, {"measurement": "antipruritic action in HRRR mice", "setting": "[3]", "result": "completely lost its antipruritic action"}, {"measurement": "activity at the benzodiazepine binding site (potentiation of GABA-induced currents)", "setting": "[4]", "result": "partial agonistic activity"}, {"measurement": "potentiation of GABA-induced currents", "setting": "[5]", "result": "did not potentiate GABA-induced currents"}, {"measurement": "potentiation of GABA-induced currents", "setting": "[6]", "result": "only very weak potentiating effects"}, {"measurement": "activation of GABAARs in the absence of GABA", "setting": "[7]", "result": "did not activate"}, {"measurement": "amplitude of GABA-IPSCs", "setting": "[8]", "result": "did not affect the amplitude"}, {"measurement": "prolongation of the decay of GABA-IPSCs", "setting": "[8]", "result": "43±10", "unit": "%"}, {"measurement": "antipruritic action after intrathecal injection (biting time, scratching bouts 0-10 min)", "setting": "[9]", "result": "antipruritic action"}, {"measurement": "biting responses, hoxB8-α2−/− mice vs global α2R/R mice", "setting": "[10]", "result": "No significant difference"}, {"measurement": "biting responses in treated mice compared between genotypes", "setting": "[10]; hoxB8-α2−/−, α2fl/fl and α2 (H→R) mice", "result": "differed significantly between genotypes"}]}
